Measured values from the NIST ThermoML archive (doi:10.1016/j.jct.2010.08.004).

Assay: mn = molality of the nth substance listed, in mol/kg
Details: 101 kPa, Liquid, Vibrating tube method

NCC(=O)O [2-aminoacetic acid] + O
mass density [kg/m3]
Details | m1 = 0.05482 | m1 = 0.1106 | m1 = 0.1792 | m1 = 0.2044 | m1 = 0.2754 | m1 = 0.2966
293.15 K | 999.976 | 1001.75 | 1003.91 | 1004.69 | 1006.9 | 1007.58
298.15 K | 998.789 | 1000.54 | 1002.68 | 1003.46 | 1005.64 | 1006.28
303.15 K | 997.364 | 999.102 | 1001.22 | 1002 | 1004.17 | 1004.81
308.15 K | – | 997.455 | 999.562 | 1000.33 | 1002.5 | 1003.13

CC(C)C[C@H](N)C(=O)O [L-leucine] + O
mass density [kg/m3]
Details | m1 = 0.03401 | m1 = 0.03488 | m1 = 0.05007 | m1 = 0.08154 | m1 = 0.119 | m1 = 0.1427
293.15 K | 999.039 | 999.061 | 999.427 | 1000.18 | 1001.08 | 1001.64
298.15 K | 997.855 | 997.877 | 998.236 | 998.978 | 999.854 | 1000.41
303.15 K | 996.441 | 996.462 | 996.817 | 997.55 | 998.417 | 998.966
308.15 K | 994.81 | 994.83 | 995.182 | 995.908 | 996.767 | 997.31

CC(C)[C@H](N)C(=O)O [L-valine] + O
mass density [kg/m3]
Details | m1 = 0.04524 | m1 = 0.09973 | m1 = 0.152 | m1 = 0.1964 | m1 = 0.2542 | m1 = 0.2955
293.15 K | 999.424 | 1000.87 | 1002.24 | 1003.4 | 1004.9 | 1006.01
298.15 K | 998.244 | 999.672 | 1001.03 | 1002.18 | 1003.67 | 1004.72
303.15 K | 996.827 | 998.242 | 999.59 | 1000.73 | 1002.2 | 1003.25
308.15 K | 995.195 | 996.6 | 997.939 | 999.067 | 1000.53 | 1001.56
